# Reference: the Deep4Chem optical property database
# Several values for one entry are separate records, joined by “and”; a condition that tells them apart may be missing. Equal entries are not always repeated.
# Assay: solvent given as SMILES
structure (smiles),measurement,setting,value
c1cc2ccc3ccc4cc3c2cc1c1ccc2ccc3ccc(cc3c2c1)c1ccc2ccc3ccc4cc3c2c1,emission maximum,in Cc1ccccc1,419 nm
CCn1c2cc(-c3cccs3)ccc2c2ccc(-c3cccs3)cc21,emission maximum,in ClCCl,391 nm
CN(C)c1ccc(C#Cc2cc(C#Cc3ccc(N(C)C)cc3)c3ccc4c(C#Cc5ccc(C(F)(F)F)cc5)cc(C#Cc5ccc(N(C)C)cc5)c5ccc2c3c54)cc1,emission maximum,in ClCCl,576 nm
CCCCCCn1c2cc(/C=C/c3cccs3)ccc2c2ccc(/C=C/c3cccs3)cc21,emission maximum,in ClC(Cl)Cl,427.35 nm
CC(C)(C)c1ccc(N(c2ccc(S(=O)(=O)c3ccc(S(=O)(=O)c4ccc(N(c5ccc(C(C)(C)C)cc5)c5ccccc5C(C)(C)C)cc4)cc3)cc2)c2ccccc2C(C)(C)C)cc1,emission maximum,in Cc1ccccc1,454 nm
same,emission maximum,in c1cc(-n2c3ccccc3c3ccccc32)nc(-n2c3ccccc3c3ccccc32)c1,463.53 nm
COc1ccc2c(c1)cc(C)c1c3ccccc3[nH]c21,emission maximum,in ClCCl,363 nm
COC(=O)C1CCN(c2ccc3c(N4CCCCC4)c4ccc(=[N+]5CCC(C(=O)OC)CC5)cc-4oc3c2)CC1 (stereo not given),emission maximum,in ClCCl,552 nm
N#Cc1c[nH]c2ccccc12,emission maximum,in C1CCOC1,314 nm
same,emission maximum,in C1COCCO1,305 nm
same,emission maximum,in CC#N,313 nm
same,emission maximum,in CC(C)O,315 nm
same,emission maximum,in CCO,314 nm
same,emission maximum,in CO,314 nm
same,emission maximum,in CS(C)=O,316 nm
same,emission maximum,in O,320 nm
same,emission maximum,in OCC(F)(F)F,314 nm
CCCCC(CC)COc1cc(OCC(CC)CCCC)c2c#cc3ccc4sc5ccc(c#cc6cc(c#cc7ccc8sc9ccc(c#cc1c2)cc9c8c7)c(C(CCCC)OCCC)cc6C(CCCC)OCCC)cc5c4c3 (stereo not given),emission maximum,in ClCCl,377 nm
CCOc1cccc2c1O[B-](F)(F)[n+]1c3c(c4c(c1-2)-c1ccccc1CC4)-c1ccccc1CC3,emission maximum,in ClCCl,483 nm
O=C1c2ccc(-c3ccc(N(c4ccc(-c5ccccc5)cc4)c4ccc(-c5ccccc5)cc4)cc3)cc2C(=O)c2ccc(-c3ccc(N(c4ccc(-c5ccccc5)cc4)c4ccc(-c5ccccc5)cc4)cc3)cc21,emission maximum,in Cc1ccccc1,608 nm
same,emission maximum,in c1ccc2c(c1)c1ccccc1n2-c1ccc(-c2ccc(-n3c4ccccc4c4ccccc43)cc2)cc1,601 nm
COc1cc(-c2cc(-c3ccc(C)cc3)nc3c(C#N)c(N4CCCC4)nc(N)c23)cc(OC)c1OC,emission maximum,in CC#N,525 nm
same,emission maximum,in CC(C)=O,521 nm
same,emission maximum,in CC(C)O,513 nm
same,emission maximum,in CO,526 nm
same,emission maximum,in ClC(Cl)Cl,509 nm
same,emission maximum,in ClCCl,515 nm
same,emission maximum,in c1ccccc1,508 nm
CCCCn1c2ccccc2c2ccc3c4cc(-c5ccc(C(F)(F)F)cc5)ccc4n(CCCC)c3c21,emission maximum,in ClC(Cl)Cl,402 nm
COc1cc(OC)cc(C2=[O+][B-](F)(F)OC(c3cccs3)=C2)c1,emission maximum,in CCCCCC,434.88 nm
same,emission maximum,in Cc1ccccc1,502.25 nm
same,emission maximum,in ClCCl,567 nm
Cc1cc2c(o1)c(Br)cc1c(C)cc(=O)oc12,emission maximum,in C1CCCCC1,408 nm
same,emission maximum,in C1COCCO1,418 nm
same,emission maximum,in CC#N,435 nm
same,emission maximum,in CCO,439 nm
same,emission maximum,in OCC(F)(F)F,436 nm
O=[N+]([O-])c1ccc(/C=C/c2c[nH]c3ccccc23)cc1,emission maximum,in CC#N,642 nm
same,emission maximum,in CCCCCCC,511 nm
same,emission maximum,in CO,567 nm
same,emission maximum,in O,552 nm
COc1cc(/C=C/c2ncc(-c3ccncc3)o2)cc(OC)c1OC,emission maximum,in ClCCl,463 nm
O=C1c2ccc3c4c(-c5ccccc5)cc5c6c(ccc(c7c(-c8ccccc8)cc(c2c37)C(=O)N1C1CCCCC1)c64)C(=O)N(C1CCCCC1)C5=O,emission maximum,in ClC(Cl)Cl,651 nm
O=C([O-])c1c(Cl)c(Cl)c(Cl)c(Cl)c1-c1c2cc(I)c(=O)c(I)c-2oc2c(I)c([O-])c(I)cc12,emission maximum,in CC(C)O,576 nm
same,emission maximum,in CCO,573 nm
same,emission maximum,in CO,571 nm
same,emission maximum,in O,566 nm
O=C(O)c1ccc(-c2nc(-c3ccccc3)c(-c3ccccc3)[nH]2)cc1,emission maximum,in CO,414.5 nm
Cn1c(-c2ccc(-c3nc(-c4ccccc4)c(-c4ccccc4)n3C)cc2)nc(-c2ccccc2)c1-c1ccccc1,emission maximum,in CC#N,440 nm and 417 nm
COc1cc(N(CC(=O)[O-])CC(=O)[O-])c2nc(COc3cc(C)ccc3N(CC(=O)[O-])CC(=O)[O-])ccc2c1,emission maximum,in O,500 nm
